Common to all, as to test: THT disappearance with recombinant cDNA-expressed enzyme microsomes
Holding throughout (type): in vitro ADME
What all share (conditions): 25μM THT, 35pmol CYP/mL

The target in one data set is T1, CYP2D6 (Homo sapiens, UniProt P10635).
T1 construct: purchased BD Biosciences; host or cells: baculovirus infected insect cells
Here is the method:
(§1) To identify the enzymes involved in Bu metabolism, 11 microsomal batches (BD Biosciences, Stockholm, Sweden), each containing a separate cDNA-expressed enzyme, were incubated with 25μM THT. The microsomes contained FMO3, CYP1A1, CYP1A2, CYP2B6, CYP2C8, CYP2C9, CYP2C19, CYP2D6, CYP2E1, CYP3A4 or CYP4A11. Time curves (0, 5, 15, 30 and 60min) were performed at a concentration of 0.35mg protein /mL for FMO3 and 35pmol CYP/mL for the CYP enzymes. The recombinant enzymes were produced from human cDNA expressing each of them using baculovirus expression system. Baculovirus infected insect cells were used to prepare these microsomes.
(§2) Incubations were performed in triplicate and negative controls (excluding NADPH, microsomes, THT or by terminating the incubations before the addition of NADPH) were run in parallel.
(§3) To measure THT and the secondary metabolite, sulfolane, the reactions were terminated by adding dichloromethane. Samples (180μL) were added to 10μM nicotine (20μL, Merck, Hoherbrunn, Germany), used as an internal standard, before extraction. The matrix was extracted by liquid-liquid extraction with dichloromethane (equal volumes, 200μL) after 30 sec of high speed vortexing. After extraction and centrifugation at 16000 g for 10 min, the organic phase was transferred into GC-MS tubes. […] Samples (180μL) were added to 10 μM of 3-methylsulfolane (20μL, TCI, Tokyo, Japan), used as an internal standard. The matrix was lyophilized (< 1 mbar at 40°C under N2 stream) to dryness, the residue was dissolved in 10 μL water and 200 μL of ethyl acetate was added for extraction. Samples were vortexed for 30 sec at high speed and centrifuged at 16000 g for 10 min. The organic phase was transferred to GC-MS tubes.
(§4) Concentrations of THT and its metabolites were measured using GC-MS [18] after validation for use with microsomal incubations according to the international guidelines.

In the next data set the target is T2, CYP2B6 (Homo sapiens, UniProt P20813).
T2 construct: purchased BD Biosciences; host or cells: baculovirus infected insect cells
T2 sequence (P20813 1-491): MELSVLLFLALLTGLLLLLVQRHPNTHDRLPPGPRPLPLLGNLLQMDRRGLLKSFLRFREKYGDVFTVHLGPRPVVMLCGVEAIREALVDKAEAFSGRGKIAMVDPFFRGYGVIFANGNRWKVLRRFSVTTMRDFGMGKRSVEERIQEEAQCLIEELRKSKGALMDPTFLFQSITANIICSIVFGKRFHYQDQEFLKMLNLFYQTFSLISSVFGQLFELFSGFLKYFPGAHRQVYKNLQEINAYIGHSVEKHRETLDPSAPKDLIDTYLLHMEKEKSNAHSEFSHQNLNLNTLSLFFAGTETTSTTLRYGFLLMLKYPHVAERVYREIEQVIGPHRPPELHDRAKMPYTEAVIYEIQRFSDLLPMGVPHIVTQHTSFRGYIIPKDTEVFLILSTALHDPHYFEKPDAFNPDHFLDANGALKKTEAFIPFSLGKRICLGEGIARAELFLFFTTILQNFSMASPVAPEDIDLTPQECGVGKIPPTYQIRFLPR
As to the method:
as §1, §2, §3, §4

The next data set has as its target T3, CYP2C8 (Homo sapiens, UniProt P10632).
T3 construct: purchased BD Biosciences; host or cells: baculovirus infected insect cells
T3 sequence (P10632 1-490): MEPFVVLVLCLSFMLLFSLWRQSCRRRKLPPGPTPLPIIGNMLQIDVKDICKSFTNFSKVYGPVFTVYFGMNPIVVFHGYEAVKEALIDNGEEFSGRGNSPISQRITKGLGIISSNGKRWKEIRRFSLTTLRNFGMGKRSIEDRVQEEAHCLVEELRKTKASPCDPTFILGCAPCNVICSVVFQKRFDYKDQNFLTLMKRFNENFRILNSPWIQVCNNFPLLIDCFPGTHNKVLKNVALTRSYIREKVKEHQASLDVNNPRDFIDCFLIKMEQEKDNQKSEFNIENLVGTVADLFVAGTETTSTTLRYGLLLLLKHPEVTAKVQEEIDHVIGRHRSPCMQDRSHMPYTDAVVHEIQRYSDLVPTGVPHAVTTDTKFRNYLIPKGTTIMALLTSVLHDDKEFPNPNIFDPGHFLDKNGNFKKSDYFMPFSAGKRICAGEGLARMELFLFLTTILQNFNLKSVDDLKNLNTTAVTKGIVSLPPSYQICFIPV
Here is the method: as §1, §2, §3, §4

The next data set deals with T4, CYP4A11 (Homo sapiens, UniProt Q02928).
T4 construct: purchased BD Biosciences; host or cells: baculovirus infected insect cells
T4 sequence (Q02928 5-519): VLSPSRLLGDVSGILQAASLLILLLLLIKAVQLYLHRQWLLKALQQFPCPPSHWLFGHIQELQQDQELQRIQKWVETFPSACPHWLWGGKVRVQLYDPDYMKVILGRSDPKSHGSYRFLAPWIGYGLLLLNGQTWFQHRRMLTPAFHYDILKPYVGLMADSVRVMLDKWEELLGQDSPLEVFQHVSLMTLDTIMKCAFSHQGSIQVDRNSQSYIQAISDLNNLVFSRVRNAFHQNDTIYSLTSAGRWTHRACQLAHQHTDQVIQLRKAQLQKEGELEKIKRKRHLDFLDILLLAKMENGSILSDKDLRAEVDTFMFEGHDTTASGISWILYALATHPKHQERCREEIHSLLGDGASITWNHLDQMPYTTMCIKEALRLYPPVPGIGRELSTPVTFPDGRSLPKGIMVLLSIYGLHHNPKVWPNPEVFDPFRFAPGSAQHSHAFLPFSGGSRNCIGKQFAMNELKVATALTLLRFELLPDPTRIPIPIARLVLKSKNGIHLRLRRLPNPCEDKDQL
Here is the method:
as §1, §2, §3, §4

Each structure is given as a SMILES string.

T1 sequence (P10635 whole entry): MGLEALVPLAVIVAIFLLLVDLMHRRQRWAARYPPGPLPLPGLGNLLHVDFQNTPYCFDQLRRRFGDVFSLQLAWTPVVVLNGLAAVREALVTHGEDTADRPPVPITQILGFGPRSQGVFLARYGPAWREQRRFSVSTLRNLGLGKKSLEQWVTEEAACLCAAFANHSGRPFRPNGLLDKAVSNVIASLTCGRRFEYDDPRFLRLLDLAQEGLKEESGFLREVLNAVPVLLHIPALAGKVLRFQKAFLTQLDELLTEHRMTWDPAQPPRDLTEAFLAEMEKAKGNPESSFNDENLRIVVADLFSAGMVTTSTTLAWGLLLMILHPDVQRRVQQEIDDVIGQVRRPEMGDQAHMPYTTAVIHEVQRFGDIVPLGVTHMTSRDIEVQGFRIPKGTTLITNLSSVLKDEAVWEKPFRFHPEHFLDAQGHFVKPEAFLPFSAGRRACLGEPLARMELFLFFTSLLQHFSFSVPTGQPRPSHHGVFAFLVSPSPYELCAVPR

On to `C1CCSC1` [THT, tetrahydrothiophene], for which the v0 came out at 2.24 nmol/min/mL on CYP2D6, 1.76 nmol/min/mL at CYP2B6, 2.45 nmol/min/mL at CYP2C8 and 2.52 nmol/min/mL at CYP4A11. Also, the v0/CYP on CYP2D6 worked out at 0.06 nmol/min/pmol CYP; at CYP2B6, 0.05 nmol/min/pmol CYP; at CYP2C8 it was 0.07 nmol/min/pmol CYP; at CYP4A11 it was 0.07 nmol/min/pmol CYP.

(Values after publication PMC5679629, “Flavin-containing monooxygenase 3 (FMO3) role in busulphan metabolic pathway” (PLoS ONE, 2017).)
